The IC50 is the concentration that inhibits the measured activity by half.

The text below walks through data of article PMC5678437, “A new antagonist for CCR4 attenuates allergic lung inflammation in a mouse model of asthma” (Scientific Reports, 2017).

In one experiment the target is T1, CCR4 (Homo sapiens, UniProt P51679).
T1 construct: expressed in transfected cells; cell membrane extract
T1 sequence (P51679 1-360): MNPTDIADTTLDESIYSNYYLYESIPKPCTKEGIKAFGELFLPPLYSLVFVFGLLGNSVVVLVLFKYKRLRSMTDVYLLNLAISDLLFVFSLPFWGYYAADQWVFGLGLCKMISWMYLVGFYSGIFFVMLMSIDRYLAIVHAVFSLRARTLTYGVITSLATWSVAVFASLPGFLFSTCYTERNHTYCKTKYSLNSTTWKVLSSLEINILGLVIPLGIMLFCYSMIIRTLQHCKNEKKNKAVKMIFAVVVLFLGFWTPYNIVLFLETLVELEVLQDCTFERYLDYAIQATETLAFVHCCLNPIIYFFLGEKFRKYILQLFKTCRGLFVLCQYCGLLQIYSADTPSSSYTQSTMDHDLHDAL
Briefly: Radio ligand competition binding assay on CCR4 cell membrane extract. To be noted: HEK293 CCR4 cell membrane extract, 4 °C, 24 h. How it is done:
A HEK293 cell line stably expressing CCR4-enhanced green fluorescent protein was established. CCL22, CCL17 and C27 were labeled with [^125I]. For competition binding assays, equivalent quantities of cell membrane extract and [^125I]-CCL22, [^125I]-CCL17 and [^125I]-C27 were incubated with varying quantities of unlabeled compound 8a, compound 6b and compound 22. All reactions were incubated at 4 °C for 24 h. After the binding step, 25% polyethylene glycol (6000–8000) and 0.5% human g-globulin were added, and the mixture was incubated at room temperature for 15 min. Binding complexes were obtained by centrifuging the mixture at 3500 rpm for 20 min at 4 °C, and radioactivity was evaluated. Results were corrected for “blank” background radiation, defined as the radioactivity precipitated by polyethylene glycol–g-globulin from the same amount of radioactive ligand in binding buffer in the absence of cells.

A further experiment has as its target T2, CCR2B (Homo sapiens, UniProt P41597).
T2 construct: expressed in transfected cells; host or cells: HEK293, pcDB-CCR2B plasmid made in the authors' laboratory
T2 sequence (P41597 1-360 isoform P41597-2): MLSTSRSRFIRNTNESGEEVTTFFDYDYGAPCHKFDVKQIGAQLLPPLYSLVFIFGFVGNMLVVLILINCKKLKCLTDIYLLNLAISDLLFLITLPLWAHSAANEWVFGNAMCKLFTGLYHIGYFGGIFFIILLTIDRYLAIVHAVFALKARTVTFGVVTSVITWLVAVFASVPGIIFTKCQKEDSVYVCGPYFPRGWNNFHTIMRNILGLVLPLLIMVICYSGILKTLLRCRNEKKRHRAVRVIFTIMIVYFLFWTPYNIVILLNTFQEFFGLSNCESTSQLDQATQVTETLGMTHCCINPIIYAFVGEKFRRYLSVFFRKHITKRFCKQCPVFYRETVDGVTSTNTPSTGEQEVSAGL
Briefly: Chemotaxis assay for receptor specificity, HEK293-CCR2B. The experiment is classed as cell-based. The settings on record: compound as chemoattractant in lower chamber, 0.2, 1, 5, 25 μM. How it is done: (§1) HEK293 cells were transfected with different chemokine receptors. Compound 8a with DMSO was diluted to 0.2 mM, 1 mM, 5 mM and 25 mM, and then we used RPMI 1640 medium containing 0.1% BSA for dilution. The final concentration is: 0.2 μM, 1 μM, 5 μM and 25 μM. DMSO was also diluted 1000-fold with 0.1% BSA RPMI 1640 medium. Chemokines was also diluted to an appropriate concentration. The dilutions of Compound 8a, 1‰ DMSO, the corresponding chemokines of different receptors and 0.1% BSA RPMI 1640 medium were placed in the lower chambers (27.5 μl/well). The transfected HEK293 cells were resuspended in the same medium at a density of 1 × 10^6 cells/ml and added to the upper chambers (55 μl/well).

Another experiment concerns the target T3, CCR3 (Homo sapiens, UniProt P51677).
T3 sequence (P51677 1-355): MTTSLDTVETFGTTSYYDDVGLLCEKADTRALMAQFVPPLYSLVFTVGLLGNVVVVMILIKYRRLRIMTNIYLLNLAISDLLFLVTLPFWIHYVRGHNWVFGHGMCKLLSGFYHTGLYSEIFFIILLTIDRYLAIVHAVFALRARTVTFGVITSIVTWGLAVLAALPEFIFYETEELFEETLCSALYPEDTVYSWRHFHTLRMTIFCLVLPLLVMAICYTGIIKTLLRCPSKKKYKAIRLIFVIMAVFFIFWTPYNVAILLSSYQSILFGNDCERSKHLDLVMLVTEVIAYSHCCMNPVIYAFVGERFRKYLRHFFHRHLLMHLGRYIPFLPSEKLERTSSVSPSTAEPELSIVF
Kind of experiment: Chemotaxis assay for receptor specificity, HEK293-CCR3. The experiment is classed as cell-based. The settings on record: compound as chemoattractant in lower chamber, 0.2, 1, 5, 25 μM. How it is done: as §1

In a further experiment the target is T4, CCR6 (Homo sapiens, UniProt P51684).
T4 construct: expressed in transfected cells; host or cells: HEK293, pcDI-CCR6 plasmid made in the authors' laboratory
T4 sequence (P51684 1-374): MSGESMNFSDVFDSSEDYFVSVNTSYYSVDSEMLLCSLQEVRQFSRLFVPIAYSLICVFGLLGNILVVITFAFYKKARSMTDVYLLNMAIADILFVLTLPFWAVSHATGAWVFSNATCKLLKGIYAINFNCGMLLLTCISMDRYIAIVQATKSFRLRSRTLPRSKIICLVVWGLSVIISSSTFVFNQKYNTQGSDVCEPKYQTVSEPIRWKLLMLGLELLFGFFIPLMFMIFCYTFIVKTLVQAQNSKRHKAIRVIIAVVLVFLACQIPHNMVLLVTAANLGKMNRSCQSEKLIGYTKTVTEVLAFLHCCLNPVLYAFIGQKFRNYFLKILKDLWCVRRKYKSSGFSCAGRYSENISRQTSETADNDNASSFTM
Kind of experiment: Chemotaxis assay for receptor specificity, HEK293-CCR6. It is filed as cell-based. The settings on record: compound as chemoattractant in lower chamber, 0.2, 1, 5, 25 μM. How it is done:
as §1

Like-named read-outs stand apart in the source and are kept apart here.

In the case of `O=C(C1CCCCN1)N1CCN(c2nc(Cl)cc(NCc3ccc(Cl)cc3Cl)n2)CC1` (stereo not drawn) [compound 8a, {4-[4-Chloro-6-(2,4-dichloro-benzylamino)-pyrimidin-2-yl]-piperazin-1-yl}-piperidin-2-yl-methanone], the IC50 at CCR4 ([125I]-C27, read-out: IC50, competitive binding with C27 to CCR4) stood at 62 nM; on CCR4 ([125I]-CCL17, read-out: IC50, competitive binding with CCL17 to CCR4), 151 nM; at CCR4 ([125I]-CCL22, read-out: IC50, competitive binding with CCL22 to CCR4), 272 nM. In addition, the “chemotaxis effect of the compound on HEK293-CCR2B” value on CCR2B is recorded as “didn’t exert chemotaxis effects”. In addition, at CCR3, the “chemotaxis effect of the compound on HEK293-CCR3” value was “didn’t exert chemotaxis effects”. Also, the “chemotaxis effect of the compound on HEK293-CCR6” value at CCR6 is recorded as “didn’t exert chemotaxis effects”.
